From patent US20230151432A1, “KIF18A INHIBITORS FOR TREATMENT OF NEOPLASTIC DISEASES” (AMGEN INC., priority 2020, published 2023)

What was measured:
[1] = tested on: KIF18A protein localization in HeLa cells; experiment: KIF18A and Centrin-3 immunostaining; assay type: cell-based, human; details: 0.05 μM, 6 hours
Description: To analyze the effect of KIF18A protein localization in cancer cells treated with a KIF18A inhibitor, KIF18A and Centrin-3 immunostaining in HeLa cells (FIG. 11). Cells were seeded into Lab-Tek 2-well chamber slides at a density of 100,000 cells per chamber in complete growth media and grown for 2 days to approximately 80% confluency. Cells were treated for 6 hours with DMSO, KIF18A inhibitor (Compound C9, 0.05 μM) in 2 mL of complete media. Cells were fixed in 4% formaldehyde for 15 minutes at room temperature followed by secondary fixation in ice-cold 90% methanol for 10 minutes at 4° C. After fixation, cells were washed in 2 mL of Wash Buffer (1% BSA, 0.2% Triton X-100, 1×PBS) and blocked 1 mL of Blocking Buffer (2 drops of horse serum (Vector Labs, Burlingame, Calif.) per 5 mL Wash Buffer). Cells are stained with anti-KIF18A rabbit antibody (1:3000, A301-080A 05-806, Bethyl) and anti-CETN3 mouse antibody (1:1000, H00001070-M01, Abnova) in 1 mL of Wash Buffer for 2 hours at room temperature. Cells were washed twice with 2 mL Wash Buffer. […] Wide-field images were captured using 40×objective on upright Nikon Eclipse NI-E epi-fluorescence microscope running Elements software. […]

[2] = tested on: human breast cancer cell lines; experiment: 4-day or 6-day cancer cell line growth assay screens (CellTiter-Glo, NCA); assay type: cell-based
Description: (§1) An analysis was carried out to identify cancer cell lines sensitivity profile to the KIF18A inhibitor Compound C9. In this analysis, a panel of different human breast and ovarian cancer cell lines (Table 2 of FIG. 4A and Table 3 of FIG. 4B), were used in either a 4-day or 6-day cancer cell line growth assay screen.
(§2) In the 4-day growth assay screen, cancer cell lines were treated in 96-well tissue culture plates at pre-optimized seeding density. Growth media conditions were determined by ChemPartners (Shanghai, China). After 24 hours, cells were treated with KIF18A inhibitor (Compound C9; final 10-point concentration range 2.0 μM to 0.0001 μM, 3-fold dilution) in a 4-day cell growth assay based on quantitation of ATP as an indicator of viable cells using CellTiter-GLO 2.0 readout (CTG, Promega). CTG assay was performed in duplicate for each cell line. Detection was performed using luminescence plate reader and expressed as relative luminescence units (RLU) based on POC (percentage of DMSO control). Raw data was provided to Amgen for curve-fitting analysis with 4-parameter equation (variable slope) using GraphPad Prism software (V7.0.4). […]
(§3) An expanded screen was performed using 6-day growth assay, cancer cell lines were treated in black 384-well tissue culture plates at 500-1500 cells per well. Growth media conditions were determined by Horizon Discovery (Cambridge, United Kingdom). After 24 hours, cells were treated with KIF18A inhibitor (Compound C9; final 11-point concentration range 2.0 μM to 0.0000339 μM, 3-fold dilution) in a 6-day cell growth assay based on quantitation of ATP as an indicator of viable cells using CellTiter-GLO 2.0 readout (Promega). Luminescence was detected using Envision plate reader (Perkin Elmer) and expressed as relative luminescence units (RLU) based on POC (percentage of control). […]
(§4) In Tables 2 and 3, “?” means that there were differences in sensitivity calls between the first screen and the second screen, and “ND” means not determined. […]

[3] = tested on: human ovarian cancer cell lines; experiment: as above; assay type: cell-based; details: nine TP53 wild-type ovarian cancer cell lines
Description: as §1, §2, §3, §4

Compound: CC(C)(C)NS(=O)(=O)c1cccc(NC(=O)c2ccc(S(=O)(=O)NC(C)(C)C)cc2N2CCC3(CC2)CC3)c1 [Compound C9, 4-(N-(tert-butyl)sulfamoyl)-N-(3-(N-(tert-butyl)sulfamoyl)phenyl)-2-(6-azaspiro[2.5]octan-6-yl)benzamide]
- KIF18A protein localization in mitosis [1]: KIF18A protein mis-localization in mitosis
- sensitivity to KIF18A inhibitor ([2]; luminal A or luminal B breast cancer cell lines): None of the luminal A or luminal B breast cancer cell lines were sensitive
- sensitivity to KIF18A inhibitor ([2]; nine TP53 wild-type breast cancer cell lines incl. CAL-51, DU4475): None of the nine TP53 wild-type breast cancer cell lines were sensitive
- sensitivity to KIF18A inhibitor [3]: None of the nine TP53 wild-type ovarian cancer cell lines were sensitive
